Laboratory results: PMC8117003, “Pharmacokinetic Profile and Oral Bioavailability of Diosgenin, Charantin, and Hydroxychalcone From a Polyherbal Formulation” (Frontiers in Pharmacology, 2021)
Values joined by “and” are separate entries in the source; they are usually repeats but may differ in a detail not shown here. Identical values can stand only once. Like-named read-outs stand apart in the source and are kept apart here.

What was measured:
[1] = Pharmacokinetics and absolute bioavailability of pure marker compounds after single oral and i.v. dose; format: in vivo, male Wistar rats; settings: for MRT: MRT (mean residence time); for half-life: t 1/2 (plasma half-life); for k el: plasma, read-out: Kel (elimination rate constant) (converted); for k el / Kel (elimination rate constant): rat plasma
Protocol: Plasma concentrations of active marker compounds were determined using validated high-performance thin layer chromatography (HPTLC) with the UV detection method.
The plasma samples (150 µl) were deproteinized by adding mixture of methanol: dichloromethane (1:1), followed by vortex mixing at 3000 rpm for 5 min. The supernatant was separated and further extracted with about 1.5 ml of ethyl acetate by mixing on vortex mixer at 3000 rpm for 10 min. The ethyl acetate layer was then collected and evaporated to dryness, followed by reconstitution with mobile phase (200 µl) containing chloroform: glacial acetic acid: methanol: water ((4.0:3.0:2.0:1.0) v/v and 100 µl was applied on a HPTLC plate. The optimized HPTLC conditions for development and quantification of the constituents is given in Table 2.
Absolute bioavailabilities of marker compounds viz. diosgenin, charantin, and hydroxychalcone were determined in male Wistar rats. The animals weighing 300–350 gm were fasted overnight before the dosing with free access to drinking water throughout the experimental period. For the purpose of dosing all the three marker compounds viz, diosgenin, charantin, and hydroxychalcone were suspended in water to make the dose of 15 mg/kg per oral to be administrated to the groups of […]. The animals were divided into two groups with six animals in each group. The first group received the marker compounds in the dose of 1.5 mg/kg i.v. via lateral tail vein, while the second group received the marker compounds in the dose of 15 mg/kg p.o. The rats were anesthetized using ether and blood samples were collected through puncturing the retro-orbital plexus at 0, 0.17, 0.5, 1, 2, 4, 6, 12, and 24 h time points. Blood samples were centrifuged to separate plasma and stored at −20°C until bioanalysis.
Non-compartmental analysis of data was performed using statistical moment theory. The peak plasma concentration (Cmax) and the corresponding time (Tmax) were directly obtained from the raw data.
The area under the plasma concentration vs. time curve upto the last quantifiable point, AUC(0-t), was calculated by the linear and log-linear trapezoidal rule summation: AUC(0−t) =∑C0+Ct/2× Tt− T0.
The AUC(0-t) was extrapolated to infinity (i.e., […]) by adding the quotient of Clast/Kel, AUC(t−∞) = Clast/Kel,
Kel was calculated by the linear regression of the log-transformed concentrations of the last three data points in the terminal phase. Kel = −slope × 2.303.
The half-life of the elimination phase was obtained from using the relationship, t 1/2 = 0.693/Kel.
Clearance was calculated using the relationship Cl = Vd × Kel
Apparent volume of distribution was calculated using relationship Vd = Dose Administered/Plasma concentration.
Absolute oral bioavailability (F) was calculated using relationship F = {[AUC (oral)/AUC (iv)] × [Dose (iv)/Dose (oral)]} × 100.

[2] = Stability of marker compounds (bioanalytical HPTLC, quality control samples); format: in vitro ADME, rat; settings: for Freeze thaw stability / Short-term room temperature stability: rat plasma
Protocol: Sample stability was determined by analyzing samples for quality control for analyte’s stock stability in solvent, refrigerator stock solution stability, freeze and thaw stability, and bench top stability. The stability experiments were carried out to evaluate the degradations of the marker compounds under different experimental conditions. […] As per the acceptance criteria, % ratio (Stability/comparison) should be within 85–115%; from the above results, it was concluded that all the marker compounds were within the acceptance criteria for stability study Table 7.

[3] = male, Wistar, rat, in vivo, iv, 1.5 mg/kg
[4] = male, Wistar, rat, in vivo, po, 15 mg/kg
[5] = pure marker, oral single dose 15 mg/kg, 15 mg/kg

C[C@@H]1CC[C@@]2(OC1)O[C@H]1C[C@H]3[C@@H]4CC=C5C[C@@H](O)CC[C@]5(C)[C@H]4CC[C@]3(C)[C@H]1[C@@H]2C [Diosgenin]
bioavailability ([1]; male, Wistar, rat, in vivo): 9 ± 0.2% | AUC 0-∞ [1, 3]: 4957.5 ± 440 ng·h/mL | Cl (drug clearance) [1, 3]: 0.2221 ± 0.05 mL/h/kg | Cmax [1, 3]: 612.2 ± 100 ng/mL | MRT (mean residence time) [1, 3]: 9.9420 ± 0.90 h | Vd (apparent volume of distribution) [1, 3]: 0.0025397 ± 0.00057 L/kg | t 1/2 (plasma half-life) [1, 3]: 7.9300 ± 0.37 h | AUC(0-inf) [1, 3]: 4470 ng·h/mL | clearance ([1]; male, Wistar, rat, in vivo, iv, 1.5 mg/kg, Cl (drug clearance)): 220 mL/h/kg | Cmax ([1]; male, Wistar, rat, in vivo, iv, 1.5 mg/kg, Cmax): 570 ng/mL | MRT [1, 3]: 8.2 h | Vd ([1]; male, Wistar, rat, in vivo, iv, 1.5 mg/kg, Vd (apparent volume of distribution)): 2.5 L/kg | half-life [1, 3]: 7.56 h | AUC 0-∞ [1, 4]: 4475.3 ± 60 ng·h/mL | Cl (drug clearance) [1, 4]: 2.5143 ± 0.09 mL/h/kg | Cmax [1, 4]: 577.3 ± 12 ng/mL | MRT (mean residence time) [1, 4]: 8.2008 ± 0.15 h | Tmax [1, 4]: 1 h | t 1/2 (plasma half-life) [1, 4]: 7.5638 ± 0.21 h | AUC(0-inf) [1, 4]: 4950 ng·h/mL | Cmax ([1]; male, Wistar, rat, in vivo, po, 15 mg/kg, Cmax): 610 ng/mL | MRT [1, 4]: 9.94 h | half-life [1, 4]: 7.93 h | k el ([1]; male, Wistar, rat, iv, 1.5 mg/kg, pure marker, IV single dose 1.5 mg/kg): 2.5e-05 s⁻¹ | k el ([1]; male, Wistar, rat, po, 15 mg/kg, pure marker, oral single dose 15 mg/kg): 2.22e-05 s⁻¹ | AUMC 0-∞ ([1]; pure marker, IV single dose 1.5 mg/kg): 17.3937 ± 2.10 µg.h^2/ml | Kel (elimination rate constant) ([1]; pure marker, IV single dose 1.5 mg/kg, 1.5 mg/kg): 0.0875 ± 0.004 h⁻¹ | AUMC 0-∞ ([1]; pure marker, oral single dose 15 mg/kg): 36.700 ± 0.77 µg.h^2/ml | Kel (elimination rate constant) [1, 5]: 0.0917 ± 0.003 h⁻¹ | Ka (rate of absorption) [1, 5]: 1.1 h⁻¹ and 1.1 ± 0.10 h⁻¹ | Refrigerator standard stock solution stability ([2]; 0.4 µg/ml): 91.73 ± 0.46% | Room temperature standard stock solution stability ([2]; 0.4 µg/ml): 85.18 ± 0.45% | Refrigerator standard stock solution stability ([2]; 0.8 µg/ml): 90.24 ± 1.13% | Room temperature standard stock solution stability ([2]; 0.8 µg/ml): 84.86 ± 1.23% | Refrigerator standard stock solution stability ([2]; 1.2 µg/ml): 89.56 ± 2.21% | Room temperature standard stock solution stability ([2]; 1.2 µg/ml): 85.03 ± 2.16% | Degradation in plasma ([2]; plasma, under different experimental conditions): no significant degradation | Freeze thaw stability ([2]; 0.4 µg/ml): 87.06% | Short-term room temperature stability ([2]; 0.4 µg/ml): 98.64% | Freeze thaw stability ([2]; 0.8 µg/ml): 94.52% | Short-term room temperature stability ([2]; 0.8 µg/ml): 97.90% | Freeze thaw stability ([2]; 1.2 µg/ml): 97.86% | Short-term room temperature stability ([2]; 1.2 µg/ml): 98.25%

Charantin
Absolute bioavailability ([1]; rat, in vivo): 8.18 ± 0.36% | AUMC 0-∞ ([1]; rat, in vivo, iv, 1.5 mg/kg): 182.9438 ± 1.74 µg.h^2/ml | AUMC 0-∞ ([1]; rat, in vivo, po, 15 mg/kg): 176.7245 ± 1.83 µg.h^2/ml | Cl (drug clearance) ([1]; rat, in vivo, po, 15 mg/kg): 5.9268 ± 0.31 mL/h/kg | Tmax ([1]; rat, in vivo, po, 15 mg/kg): 6 h | Degradation in plasma [2]: no significant degradation
